Counter-ions that a name gives are not always drawn.
biological target: T1, human 5-HT2c receptor (Homo sapiens, UniProt P28335); experiment: 5-HT2c receptor affinity assay (displacement of 3H-labelled 5-HT, Scintillation Proximity Assay); settings: membranes of HEK293 cells stably expressing human 5-HT2c receptor; 3H-5-HT; non-specific binding 5 μM mianserin
T1 construct: expressed in transfected cells
T1 sequence (P28335 33-458): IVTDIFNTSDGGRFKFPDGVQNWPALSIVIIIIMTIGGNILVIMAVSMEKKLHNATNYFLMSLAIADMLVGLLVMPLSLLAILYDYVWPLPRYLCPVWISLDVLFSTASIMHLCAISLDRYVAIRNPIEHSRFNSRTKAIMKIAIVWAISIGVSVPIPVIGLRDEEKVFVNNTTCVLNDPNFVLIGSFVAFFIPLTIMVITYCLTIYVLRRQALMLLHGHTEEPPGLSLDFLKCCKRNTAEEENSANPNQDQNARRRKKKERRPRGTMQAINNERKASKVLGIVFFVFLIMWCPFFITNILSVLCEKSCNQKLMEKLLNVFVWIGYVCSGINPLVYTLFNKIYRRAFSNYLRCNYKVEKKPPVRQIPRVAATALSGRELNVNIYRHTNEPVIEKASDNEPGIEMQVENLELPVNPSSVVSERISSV
Procedure: The 5-HT2c receptor affinity of compounds in the Examples was determined in competition experiments, where the ability of each compound in serial dilution to displace ^3H-labelled 5-HT, bound to membranes prepared from a transfected HEK293 cell line stably expressing the human 5-HT2c receptor protein, was monitored by Scintillation Proximity Assay technology. Non-specific binding was defined using 5 μM mianserin.

Structure (SMILES)	Ki [nM]
CC(Oc1cncc(N2CCNCC2)n1)c1cccc(F)c1 (centres unmarked) [Example 2, 2-[1-(3-Fluorophenyl)ethoxy]-6-(1-piperazinyl)pyrazine]	8
c1cncc(CCOc2cncc(N3CCNCC3)n2)c1 [Example 12, 2-(1-Piperazinyl)-6-[2-(3-pyridinyl)ethoxy]pyrazine]	197
c1coc(-c2cncc(N3CCNCC3)n2)c1 [Example 15, 2-(2-Furyl)-6-(1-piperazinyl)pyrazine]	616
c1cc(OCc2cccs2)nc(N2CCNCC2)c1 [Example 18, 1-[6-(2-Thienylmethoxy)-2-pyridinyl]piperazine]	92
c1ccc(COc2cncc(N3CCNCC3)n2)cc1 [Example 20, 2-(Benzyloxy)-6-(1-piperazinyl)pyrazine]	28
FCCOc1cncc(N2CCNCC2)n1 [Example 23, 2-(2-Fluoroethoxy)-6-(1-piperazinyl)pyrazine]	478
c1ccc(COc2ccnc(N3CCNCC3)n2)cc1 [Example 32, 4-(Benzyloxy)-2-(1-piperazinyl)pyrimidine]	48
c1ccc(CCCCCOc2cncc(OC3CCNCC3)n2)cc1 [Example 48, 2-[(5-Phenylpentyl)oxy]-6-(4-piperidinyloxy)pyrazine]	37

test system: not given; experiment: not given; settings: not given

Structure (SMILES)	melting point [°C]
c1cc2c(cc1COc1cncc(N3CCNCC3)n1)OCO2 (as salt: acetate) [Example 3, 2-(1,3-Benzodioxol-5-ylmethoxy)-6-(1-piperazinyl)pyrazine]	124 to 127
COc1cccc(COc2cncc(N3CCNCC3)n2)c1 (as salt: acetate) [Example 4, 2-[(3-Methoxybenzyl)oxy]-6-(1-piperazinyl)pyrazine]	111 to 113
Fc1cc(F)cc(COc2cncc(N3CCNCC3)n2)c1 (as salt: acetate) [Example 6, 2-[(3,5-Difluorobenzyl)oxy]-6-(1-piperazinyl)pyrazine]	70 to 72
c1ccc(-c2ccc(COc3cncc(N4CCNCC4)n3)cc2)cc1 (as salt: acetate) [Example 7, 2-([1,1′-Biphenyl]-4-ylmethoxy)-6-(1-piperazinyl)pyrazine]	102 to 104
Clc1cccc(CCOc2cncc(N3CCNCC3)n2)c1 (as salt: acetate) [Example 8, 2-[2-(3-Chlorophenyl)ethoxy]-6-(1-piperazinyl)pyrazine]	118 to 119
c1ccc2c(c1)CCCC2Oc1cncc(N2CCNCC2)n1 (centres unmarked) (as salt: acetate) [Example 9, 6-(1-Piperazinyl)-2-pyrazinyl 1,2,3,4-tetrahydro-1-naphthalenyl ether]	160 to 162
FC(F)(F)c1ccc(COc2cncc(N3CCNCC3)n2)cc1 (as salt: acetate) [Example 10, 2-(1-Piperazinyl)-6-{[4-(trifluoromethyl)benzyl]oxy}pyrazine]	84 to 85
c1cncc(COc2cncc(N3CCNCC3)n2)c1 (as salt: acetate) [Example 11, 2-(1-Piperazinyl)-6-(3-pyridinylmethoxy)pyrazine]	98 to 99
c1cncc(CCOc2cncc(N3CCNCC3)n2)c1 (as salt: acetate) [Example 12, 2-(1-Piperazinyl)-6-[2-(3-pyridinyl)ethoxy]pyrazine]	90 to 91
COc1ccccc1COc1cncc(N2CCNCC2)n1 (as salt: hydrochloride) [Example 5, 2-[(2-Methoxybenzyl)oxy]-6-(1-piperazinyl)pyrazine]	171 to 173
c1ccc(CCOc2cncc(N3CCNCC3)n2)cc1 (as salt: maleate) [Example 14, 2-(2-Phenylethoxy)-6-(1-piperazinyl)pyrazine]	166 to 168
c1ccc(COc2cncc(N3CCNCC3)n2)cc1 (as salt: maleate) [Example 20, 2-(Benzyloxy)-6-(1-piperazinyl)pyrazine]	155 to 156
c1ccc2c(c1)OCCC2Oc1cncc(N2CCNCC2)n1 (centres unmarked) (as salt: maleate) [Example 26, 2-(3,4-Dihydro-2H-chromen-4-yloxy)-6-(1-piperazinyl)pyrazine]	179.5 to 182
c1ccc2c(c1)ccn2CCOc1cncc(N2CCNCC2)n1 (as salt: maleate) [Example 28, 2-[2-(1H-Indol-1-yl)ethoxy]-6-(1-piperazinyl)pyrazine]	160.5 to 163
COc1cc(COc2cncc(N3CCNCC3)n2)cc(OC)c1 (as salt: maleate) [Example 68, 2-[(3,5-Dimethoxybenzyl)oxy]-6-(1-piperazinyl)pyrazine]	134 to 137
COc1ccc(CCOc2cncc(N3CCNCC3)n2)cc1 (as salt: maleate) [Example 69, 2-[2-(4-Methoxyphenyl)ethoxy]-6-(1-piperazinyl)pyrazine]	149 to 151
c1ccc2c(CCOc3cncc(N4CCNCC4)n3)c[nH]c2c1 [Example 29, 2-[2-(1H-Indol-3-yl)ethoxy]-6-(1-piperazinyl)pyrazine]	133 to 135
Fc1ccc(COc2cncc(N3CCNCC3)n2)cc1 [Example 42, 2-[(4-Fluorobenzyl)oxy]-6-(1-piperazinyl)pyrazine]	183
COc1cccc(CCOc2cncc(OC3CCNCC3)n2)c1 [Example 45, 2-[2-(3-Methoxyphenyl)ethoxy]-6-(4-piperidinyloxy)pyrazine]	86 to 87

biological target: T2, 5-HT2c receptor (Mus musculus, UniProt P34968); experiment: not given; settings: mice that express the normal 5-HT2c receptor; cited from earlier work
T2 construct: mice that express the normal 5-HT2c receptor; host or cells: mice, in vivo
T2 sequence (P34968 33-459): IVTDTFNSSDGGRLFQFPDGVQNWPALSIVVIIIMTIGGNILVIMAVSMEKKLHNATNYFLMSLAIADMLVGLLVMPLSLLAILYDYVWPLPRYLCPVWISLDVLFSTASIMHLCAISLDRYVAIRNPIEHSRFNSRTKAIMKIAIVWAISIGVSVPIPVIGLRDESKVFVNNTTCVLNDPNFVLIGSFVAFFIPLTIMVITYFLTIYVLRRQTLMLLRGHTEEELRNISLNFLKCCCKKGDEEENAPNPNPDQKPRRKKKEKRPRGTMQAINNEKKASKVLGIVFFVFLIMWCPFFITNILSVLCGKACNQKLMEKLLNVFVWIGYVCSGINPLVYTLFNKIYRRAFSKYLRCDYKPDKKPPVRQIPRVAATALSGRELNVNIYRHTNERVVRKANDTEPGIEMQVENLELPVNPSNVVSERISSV

Structure (SMILES)	food intake
Clc1cccc(N2CCNCC2)c1 [mCPP, m-chlorophenylpiperazine]	reduces food intake

test system: 5-HT2c receptor; experiment: not given; settings: mice expressing the mutated inactive form of the 5-HT2c receptor; cited from earlier work

Structure (SMILES)	food intake
Clc1cccc(N2CCNCC2)c1 [mCPP, m-chlorophenylpiperazine]	lacks activity

test system: not given; experiment: not given; settings: obese subjects, after 2 weeks of treatment; cited from earlier work

Structure (SMILES)	body weight
Clc1cccc(N2CCNCC2)c1 [mCPP, m-chlorophenylpiperazine]	slight but sustained reduction in body weight

test system: not given; experiment: not given; settings: controlled studies; cited from earlier work

Structure (SMILES)	weight reduction
CCN[C@@H](C)Cc1cccc(C(F)(F)F)c1 [dexfenfluramine]	exhibited weight reduction
CNCCC(Oc1ccc(C(F)(F)F)cc1)c1ccccc1 (centres unmarked) [fluoxetine]	exhibited weight reduction

— patent publication US7247633B2, “Pyrimidine compounds and their use” (Biovitrum AB, priority 2000, dated 2007)
